Patent publication US20230293540A1, “ANTICOAGULANT COMPOUNDS, METHODS AND DEVICES FOR OPHTHALMIC USE” (Elixir Medical Corporation, priority 2020, published 2023)

What was measured:
[1] = test system: Calcium-reconstituted sheep blood; assay: Activated clotting time (ACT) in calcium-reconstituted sheep blood; format: biochemical; settings: individual drug at 0.6 ng/mg
Protocol: The activated clotting time (ACT) evaluation of anticoagulants was performed in Calcium-reconstituted sheep blood and recorded employing the Hemochron® Response device. […] A target amount of drug solution was then added into the test tube. […] The tube was gently shaken before being inserted into the Hemochron Response detector. The ACT read out was recorded and reported. The ACT of the control blood in the absence of any drug as first determined to establish a baseline. Then ACT was determined in the presence of different concentrations of the drug as a single component. Selected drug combinations, were then tested to evaluate for potential synergy in action between the two drugs.

[2] = Drug concentration in PEG 300 supernatant and precipitation in phosphate buffered saline (HPLC); format: physicochemical; settings: after 24 hours in DPBS
Protocol: The vial was sonicated with 40° C. heat for 30 minutes and then was placed in the 40° C. oven overnight for 20 hours. […] The crystal fine particles were verified by following. 100 µL of the clear PEG 300 solution was added to a vial with 4.3 mL of Dulbecco’s phosphate buffered saline to mimic the ophthalmic vitreous humor. […] The solution stands overnight for 24 hours at room temperature. […] The solution was then centrifuged, and the supernatant was analyzed by HPLC. […] The solution was sonicated 10 minutes until clear. […] The crystal fine particles were verified by following. […] The vial was sonicated with 40° C. heat for 30 minutes and then was placed in the 40° C. oven overnight for 20 hours.

porcine coronary artery = assay: Histopathology scores and QCA of anticoagulant eluting stents in porcine coronary artery model (Examples 2, 3); format: in vivo
Protocol: The mean score was calculated and reported. […] The smaller the fibrin score, the better efficacy.

[3] = In vivo drug released from / remaining on stent (HPLC); design: species or system porcine
From the text: The stented artery was cut longitudinally with surgical scissors. The stents were separated from the tissue.

[4] = Example 3 stent, within 28 days

COc1ccc(-n2nc(C(N)=O)c3c2C(=O)N(c2ccc(N4CCCCC4=O)cc2)CC3)cc1 [Apixaban]
ACT [1]: 522 | Fraction precipitated out to crystalline form [2]: 33%

CC1CNc2c(cccc2S(=O)(=O)N[C@@H](CCCNC(=N)N)C(=O)N2CC[C@@H](C)C[C@@H]2C(=O)O)C1 (stereo partly shown) [Argatroban]
ACT [1]: 301 | Inhibition of fibrin formation compared to bare metal control stents (porcine coronary artery; 7 days): not more effective

O=C(NC[C@H]1CN(c2ccc(N3CCOCC3=O)cc2)C(=O)O1)c1ccc(Cl)s1 [Rivaroxaban]
Rivaroxaban amount released from stent ([3]; Example 3 stent, in combination with m-TOR inhibitor formulation, within 7 days): about 68.1 µg | Percent of rivaroxaban released from stent [3, 4]: about 92.5% | Rivaroxaban dose released from stent [3, 4]: about 92.5 µg | Cumulative Percent Release of drug by day 7, Rivaroxaban ([3]; Rivaroxaban/Argatroban combination stent): about 70.9% | Cumulative Percent Release of drug by day 7 ([3]; single-drug stent): about 99.5% | Inhibition of fibrin formation compared to bare metal control stents (porcine coronary artery; 7 days): more effective | Inhibition of fibrin formation compared to control (porcine coronary artery; Example 3, fast release formulation, 7 days and/or 28 days): more effective

Dalteparin
Inhibition of fibrin formation compared to bare metal control stents (porcine coronary artery; 7 days): not more effective | Inhibition of smooth muscle cell proliferation (LLL) compared to bare metal control stents (porcine coronary artery; 7 days): not more effective
